Measurements from patent US20160193328A1, “Immunoadjuvant Compositions and uses Thereof” (INSERM (INSTITUT NATIONAL DE LA SANTÉ ET DE LA RECHERCHE …, priority 2013, published 2016).

Assays:
IL-6 = IL-6 in serum of immunised animals (IL-6 ELISA kit); type: in vivo, mice; settings: 4 hours after i.p. injection; 1W1K in Alum
1W1K-specific Tfh cells = assay: 1W1K-specific CD4+ T cell and Tfh cell response in draining lymph nodes after immunisation (pMHCII tetramer flow cytometry); type: in vivo, C57Bl/6 mice; settings: for 1W1K-specific Tfh cells in the dLN / amount of 1W1K-specific CD4+ T cells / total number of CD4+ T cells in the dLN: TLR agonist added to IFA; for 1W1K-specific Tfh cells in the dLN: 40 μg 1W1K s.c., 9 days, FIG. 1A; for amount of 1W1K-specific CD4+ T cells / total number of CD4+ T cells in the dLN: 1W1K s.c., peak of primary response, versus IFA only
Procedure: (§1) Mice were either i.p. injected or immunized s.c. at the base of tail with 40 μg of peptide 1W1K, 100 μg of OVA, 200 μg of Ea-FITC in the indicated adjuvant with or without soluble TLR agonist, in a final volume of 200 µL. To target moDC, mice were immunised s.c. with 1.2×1010 beads (which correspond to 40 μg Ea52-68, 1W1K or 100 μg OVA) in indicated adjuvant with or without soluble TLR agonist. At indicated times post-immunisation, spleen or dLN (inguinal and periaortic) were collected and cells were stained for flow cytometry analysis.
To block IL-6 signalling, i.p. injections of 100 μg D7715A7 mAb (anti-IL-6R[…], eBioscience) or Rat IgG2b isotype control were performed at day −1 and +4 post-immunisation. To deplete mice of monocytes, i.v. injections of 250 μL of clodronate liposomes or control PBS liposomes (clodronateliposome.com) were performed from day −1 every second day.
For population analysis, dLN were harvested from mice and single cell suspensions were prepared in PBS with 2% FCS, 5 mM EDTA. For DC analysis, lymphoid organs were dissociated using 125 μg/mL LiberaseTL (Roche) and 40 μg/mL DNAase I (Sigma-Aldrich) at 37° C. for 20 min. 1×10^8 cells/ml were labelled at 4° C. for 45 min with mAbs: Reagents from BD Pharmingen [AlexaFluor488-K112-91 (anti-Bcl-6); PE-M1/70 (anti-CD11b), PE-281-2 (anti-CD138); Cy5PE-M1/70 (anti-CD11b); APC-2G8 (anti-CXCR5); V500-500A2 (anti-CD3); Pacific Blue-53-6.7 (anti-CD8α); Biotin-Jo2 (anti-CD95); Biotin-2G8 (anti-CXCR5)], Reagents from eBioscience [FITC-eBio1D3 (anti-CD19), FITC-RA3-6B2 (anti-B220), FITC-RM4-5 (anti-CD4); PE-MAR-1 (anti-FceR1), PE-205yekta (anti-CD205), PE-2E7 (anti-CD 103), PE-MP5-20F3 (anti-IL-6); Cy5PE-RM4-5 (anti-CD4); Cy7PE-N418 (anti-CD11c), Cy7PE-53-6.7 (anti-CD8α); Cy5.5PE-anti-CD19, Cy5.5PE-HK1.4 (anti-Ly-6c); APC-N418; AlexaFluor647 anti-GL-7; AlexaFluor700-MEL-14 (anti-CD62L), AlexaFluor700-eBio1D3, AlexaFluor700-IM7 (anti-CD44); APCeFluor780-IM7, APCeFluor780-BM8 (anti-F4/80), APCeFluor780-RA3-6B2; eFluor450-11-26c (anti-IgD), eFluor450-MEL-14; biotin-Y-Ae], reagent from R&D PE-475301(anti-CCR2). Before data collection […] propidium iodide (PI) was added to samples. 1W1K-IAb tetramer was obtained from NIH Tetramer core facility. For IL-6 intracellular staining cell suspensions were incubated for 4 hr at 37° C. in the presence of 3 μg/mL Golgi Plug (BD Bioscience) and 4 μM Monensin, fixed and permabilised using BD Fixation/Permeabilisation kit. Before permeabilisation cells were stained with Fixable Viability Dye eFluor450 or eFluor660 (eBioscience). Data were collected on a BD LSRII™ (BD Biosciences) and analysed using FlowJo software (Tree Star).
6-8-wk-old C57Bl/6 mice were irradiated (0.85 Gy) the day before i.v. injection of 1×10^7 T cell-depleted BM cells that consisted of a mix of 70% from CD11c-DTR or JHT supplemented with 30% from TLR9KO, Myd88KO, TRIFKO, IL-6K0 or wt CD45.1 C57Bl/6 mice. After 8 wk, the chimeras with CD11c-DTR BM were i.p. treated every second day with 4 ng/g body weight DTx (Sigma-Aldrich) and 1 day before immunisation with 20 ng/mouse s.c. Treated animals were then s.c. immunised either with 1W1K or OVA as described above.
The combination of adjuvant to a peptide favours robust T-dependent B cell immunity. To test whether addition of TLR agonists to other vaccine adjuvant could have a synergistic effect on the induced immune response, we examined the I-Ab restricted murine CD4+ T cell response to a peptide variant ([…], called 1W1K peptide hereafter, SEQ ID NO:1) of the I-E alpha chain immunodominant peptide 52-68 (Ea52-68) in C57Bl/6 mice. We followed the 1W1K-specific CD4+ T cells with the corresponding pMHCII tetramer in the draining lymph nodes (dLN) after sub-cutaneous (s.c.) immunisation in Incomplete Freund's adjuvant (IFA). At the peak of the effector CD4+ T cell response, we detected the CD44+ and pMHCII tetramer+1W1K-specific CD4+ T cells in the dLN (data not shown). […]

OVA-specific IgG = OVA-specific IgG in serum by ELISA after immunisation; type: in vivo, C57Bl/6 mice
OVA-specific B cells = assay: OVA-specific B cell response in dLN after immunisation (flow cytometry); type: in vivo, C57Bl/6 mice; settings: TLR agonist added to IFA; 100 μg OVA s.c.; 14 days; FIG. 2A
Procedure: as §1
For population analysis, dLN were harvested from mice and single cell suspensions were prepared in PBS with 2% FCS, 5 mM EDTA. For DC analysis, lymphoid organs were dissociated using 125 μg/mL LiberaseTL (Roche) and 40 μg/mL DNAase I (Sigma-Aldrich) at 37° C. for 20 min. […] Data were collected on a BD LSRII™ (BD Biosciences) and analysed using FlowJo software (Tree Star).
We hypothesized that an increase in the CD4+ T cell help and specifically an increase of the Tfh cells, the critical regulators of B cell responses, could result in a greater B cell response to the Ag after addition of TLR agonist to another adjuvant. The murine B cell response to ovalbumin (OVA) in wt animals is a valuable immunisation model that can be monitored via the polyclonal Ig repertoires. OVA-specific B cells can be detected by flow cytometry as CD3-IgD− cells that bind specifically to A1exa488-conjugated OVA (OVA+) (data not shown). […] Using this strategy, we determined if addition of TLR agonist to IFA impacts OVA-specific B cell responses in vivo. […]

[1] = BM chimeras (JHT + MyD88KO) lacking MyD88 signalling in B cells, added to IFA

Substance | IL-6 in the serum, sensitised JHT animals compared to sensitised wt mice (IL-6) | enhancing effect on 1W1K-specific Tfh cells (1W1K-specific Tfh cells; [1]) | 1W1K-specific Tfh cells in the dLN (1W1K-specific Tfh cells) | amount of 1W1K-specific CD4+ T cells (1W1K-specific Tfh cells) | total number of CD4+ T cells in the dLN (1W1K-specific Tfh cells) | 1W1K-specific Tfh cell differentiation (1W1K-specific Tfh cells; added to Alum, i.p., JHT mice (no functional B cells), 5 days) | increase of 1W1K-specific Tfh response (1W1K-specific Tfh cells; chimeras (CD11c-DTR + MyD88KO), DTx: MyD88 signalling in CD11c+ cells impaired, FIG. 3B) | enhancing effect on OVA-specific IgG (OVA-specific IgG; [1]) | circulating OVA-specific IgG (OVA-specific IgG; IFA supplemented with TLR agonist, 14 days, FIG. 2B) | OVA-specific GC-B cells (OVA-specific B cells) | OVA-specific PC (OVA-specific B cells) | overall OVA-specific B cells (OVA-specific B cells)
lipopolysaccharide [LPS] | significant decrease | also observed | induced an increase | did not statistically change | did not statistically change | enhanced | not observed | also observed | significant increase | increased | increased | increased
poly(I:C) | – | – | had no enhancing effect | did not statistically change | did not statistically change | – | – | – | – | – | – | –
